Test results published in patent US20260108442A1, “COMPOUND FOR USE IN PROTECTING SKIN” (TDELTAS LIMITED, priority 2013, published 2026).

What was measured:
[1] = test system: hands of the user (skin); assay: Neat topical application to dry hands, visual inspection; type: in vivo; conditions: used neat, massaged into dry hands, inspected after 30 minutes
Text: D-betahydroxybutyrate butanediol monoester was used neat in this experiment. The hands of the user were visually inspected prior to application of the D-betahydroxybutyrate butanediol monoester. […] D-betahydroxybutyrate butanediol monoester was applied to the hands and massaged in to the skin thoroughly.

[2] = test system: Primary human dermal fibroblasts (HDF); assay: Live and dead assay (Calcein AM / EthD-III) of human dermal fibroblast growth; type: cell-based; conditions: 4 mM in basal medium, after 10 days incubation, FIG. 1
Procedure: Primary human dermal fibroblasts (HDF), with a seeding capacity of 2,500 cells/cm^2, […] (HF) basal medium (TCS Cellworks) or basal medium containing 4 mM of the ketone ester, deltaG. The basal medium was changed daily. Cell viability was determined using a live and dead assay kit, with two colour fluorescence staining of live and dead cells using the probes, Calcein AM and EthD-III.

[3] = test system: Human dermal fibroblast cells; assay: Cell survival after UVB irradiation, Trypan blue exclusion; type: cell-based; conditions: viable cells at 48 hours after irradiation, FIG. 2
Procedure: Human dermal fibroblast cells were cultured in basal medium in 6-well plates at 50,000 cells per well. The cells were incubated in medium alone or with added 4 mM R-3-hydroxybutyl-(R)-3-hydroxybutyrate. After reaching 80-90% confluence, cells were washed with phosphate-buffered saline and the medium was replaced with a thin layer of Hanks buffer, (a balanced salt solution designed to use with cells in non-CO2 atmospheric conditions). Cells were irradiated at doses of 25, 50, 100, 150, 300 and 600 mJ/cm^2 using a portable UVB source (302 nm) with a fluence rate of 0.9 mW/cm^2 at cell level. UV irradiation was performed in a fume hood to maintain sterility. After irradiation, cells were washed and incubated in medium alone or with added 4 mM R-3-hydroxybutyl-(R)-3-hydroxybutyrate (as they had been before irradiation). Another group of irradiated cells, which had initially been grown in basal medium without deltaG, was incubated with added 4 mM R-3-hydroxybutyl-(R)-3-hydroxybutyrate. Cell survival was determined by counting viable cells using Trypan blue exclusion at 48 hours after irradiation.

**Q.** What does the source list for `C[C@@H](O)CCOC(=O)C[C@@H](C)O` [R-3-hydroxybutyl-(R)-3-hydroxybutyrate]?
**A.** visual inspection of hands (dryness, wrinkling, feel) [1]: visually noticeable improvement in properties including less dryness, less wrinkling and an improved feel; dead cells ([2]; compared with control): fewer dead cells; live cells ([2]; vs. 75% in control, P<0.05): 89%; protection from UVB radiation (cell survival) ([3]; 4 mM both before and after radiation exposure, compared with after radiation only): conferred no further benefit; protection from UVB radiation (cell survival) ([3]; 4 mM given to the cells after radiation, UVB 302 nm, doses between 150 and 600 mJ/cm^2, p<0.05): protected human dermal fibroblasts from UVB radiation
